Where a name gives a salt, the structure may show the parent alone.
How the values were obtained:
[1] = test system: benzodiazepine site of GABAA; test: Binding assay, benzodiazepine site of GABAA (binding assay 1: rat brain, (3H)-flunitrazepam; binding assay 2: bovine hippocampal membranes, [3H]-RY80); conditions: radioligand binding; for % Inhibition at 10 μM: 10 μM test compound; for % Inhibition at 0.1 μM: 0.1 μM test compound
Experimental: The ability of a compound disclosed herein to act as ligand to the benzodiazepine site of GABAA can be determined using pharmacological models which are well known in the art using the following assay.
Binding assay 1: Whole brain (except cerebellum) of male Wistar derived rats weighing 175±25 g were used to prepare GABAA central benzodiazepine receptor in Na—K phosphate buffer pH 7.4. A 5 mg aliquot was incubated with 1 nM (^3H)-flunitrazepam for 60 minutes at 25° C. Experiments were performed in the presence or absence of 30 μM of GABA. Non-specific binding was estimated in the presence of 10 μM of diazepam. Membranes were filtered and washed, the filters were then counted to determine (^3H)-flunitrazepam specifically bound. Test compounds were tested in duplicate according to the required concentrations (Damm, H. W., et al. (1978) Res. Comm. Chem. Pathol. Pharmacol. 22: 597-560 incorporated herein in its entirety; Speth, R. C., et al. (1979) Life Sci. 24: 351-357 incorporated herein in its entirety).
Receptor Source: Bovine hippocampal membranes
Radioligand: [3H]-RY80 (40-80 Ci/mmol)
Final ligand concentration—[0.8 nM]
Non-specific Determinant: L-655,708—[0.5 μM]
Binding assay 2 followed procedures based on Li and Szabo (Li M., Szabo A., Rosenberg H. Evaluation of native GABAA receptors containing an α5 subunit. Eur. J. Pharmacol. 413: 63-72 (2001)). Incubation Conditions: Reactions are carried out in 50 mM Tris-Citrate (pH 7.8) containing 200 mM NaCl at 0-4° C. for 60 minutes. The reaction is terminated by rapid vacuum filtration onto glass fiber filters. Radioactivity trapped onto the filters is determined and compared to control values in order to ascertain any interactions of test compound with the benzodiazepine (central) binding site.

GABAA receptors = test: Electrophysiology assay, two-electrode voltage clamp in Xenopus oocytes expressing GABAA receptors; format: cell-based; conditions: GABA EC10, screening concentration of 10 μM, subunit combination not stated
Experimental: mRNA was prepared from lyophilized plasmid pellets containing cDNA inserts encoding the specific GABAA receptor subunit. cDNAs encoding the α2, α3, and γ3 subunits were subcloned into pBluescript, SK^−. cDNAs encoding the α1 and α5 subunits were subcloned into prC while cDNA encoding the β2 subunit was subcloned into pcDNA1. The cDNA construct encoding the γ2s subunit is in the pGH19 expression construct. Overnight cultures of transformed DH5a bacterial cells were performed to grow sufficient quantities for maxiprep isolation of the plasmid cDNA. The resulting plasmid cDNA was linearized by digestion with an appropriate restriction enzyme that cleaves distal to the cDNA insert (XbaI for α1,2, β2, and γ3 or NotI for α3,5 and γ2, respectively). Following digestion, plasmid cDNA was treated with proteinase K and extracted with phenol/chloroform/isoamyl alcohol, followed by ethanol precipitation. cDNA quality was assessed by agarose-gel electrophoresis (1.5% agarose gel). Samples were stored at −20° C. until use. In vitro transcription was performed with T7 RNA polymerase. mRNA was then stored at −80° C. until use. Plasmids were linearized with appropriate restriction enzymes before in vitro transcription using the Message Machine kit (Ambion, Austin, Tex.).
GABAA Receptor Expression in Xenopus oocytes.
GABAA receptor expression in Xenopus oocytes: Following 45 min of 0.15% Tricaine anesthesia, an ovarian section containing the follicular oocytes was removed from the frog through a lateral abdominal incision. Oocytes were immediately placed in a calcium-free solution (NaCl 96 mM, MgCl2 1 mM, KCl 2 mM, Hepes 50 mM, pyruvate 2.5 mM, gentamycin 100 μg/mL, penicillin-streptomycin 50 U/mL, pH 7.4). Following 1.5-2 hour incubation in 0.2% collagenase (type II, Sigma Chemical Co., St. Louis, Mo.) at room temperature, individual Dumont stage V and VI oocytes were transferred to an incubator and maintained overnight in Barth's solution (NaCl 84 mM, NaHCO3 2.4 mM, MgSO4 0.82 mM, KCl 1 mM, Ca(NO3)2 0.33 mM, CaCl2 0.41 mM, Tris/HCl 7.5 mM, pyruvate 2.5 mM, gentamycin 50 μg/mL, penicillin-streptomycin, 100 units/mL, pH 7.4) at 18-20° C. and used for experiments 1-5 days post-injection. Oocytes were injected solution using an electronic microinjector (Drummond, Broomall, Pa.) with 50 nL of RNA containing 0.3-0.5 ng of each subunit RNA in a 1:1:1 ratio. The injected oocytes were used for experiments after 1-5 days of incubation in Barth's solution at 18-20° C.
Measurements of ion currents from oocytes expressing GABAA receptors were performed using a Warner two-electrode voltage-clamp amplifier (Warner Instruments, Inc., Foster City, Calif.) (Park-Chung, M., et al. (1999) Brain Res. 830: 72-87 incorporated herein in its entirety). Microelectrodes were fabricated from borosilicate glass capillaries with a programmed pipette puller (Sutter Instrument Co., Calif.). Microelectrode resistance was 1-3 MΩ when filled with 3 M KCl. The oocyte recording chamber was continuously perfused with Ringer solution. Oocytes were clamped at a holding potential of −70 mV during data acquisition. The membrane current was filtered at 10 Hz and sampled at 100 Hz. Compounds were applied by a gravity-driven external perfusion system. The working volume of the recording chamber was 30 μL and the rate of the perfusion was approximately 50 μL/sec. Compound application was 10-20 sec followed by a 90 sec wash. Data acquisition and external perfusion was computer controlled by custom-developed software. All experiments were performed at room temperature (22-24° C.). Dose-response data from each oocyte were fitted to the Hill equation by non-linear regression using the equation: IGABA=Emax/(1+(EC50/c)^n^H)
Emax is the maximum response, EC50 is the concentration producing 50% of the maximal response, nH is the Hill coefficient and c is the concentration of agonist. […]

Structure (SMILES) | % Inhibition at 10 μM [1] | EP Modulation (GABAA receptors) | % Inhibition at 0.1 μM [1]
CCNC(=O)n1ncc2c3nn(-c4ccc(C(F)(F)F)cc4)c(=O)c-3c[nH]c21 [Compound 6ae, N-ethyl-3-oxo-2-(4-(trifluoromethyl)phenyl)-2,3-dihydrodipyrazolo[3,4-b:3′,4′-d]pyridine-6(5H)-carboxamide] | A (A indicates % inhibition >80%) | E (E indicates negative modulation <20%) | 
CCNC(=O)n1ncc2c3nn(-c4cccc(C(F)(F)F)c4)c(=O)c-3c[nH]c21 [Compound 6ai, N-ethyl-3-oxo-2-(3-(trifluoromethyl)phenyl)-2,3-dihydrodipyrazolo[3,4-b:3′,4′-d]pyridine-6(5H)-carboxamide] | A (A indicates % inhibition >80%) | 0% | C (C indicates % inhibition <20%)
CCNC(=S)n1ncc2c3nn(-c4ccccc4)c(=O)c-3c[nH]c21 [Compound 6ar, N-ethyl-3-oxo-2-phenyl-2,3-dihydrodipyrazolo[3,4-b:3′,4′-d]pyridine-6(5H)-carbothioamide] | A (A indicates % inhibition >80%) | E (E indicates negative modulation <20%) | 
CCNC(=S)n1ncc2c3nn(-c4ccc(Cl)cc4)c(=O)c-3c[nH]c21 [Compound 6as, 2-(4-chlorophenyl)-N-ethyl-3-oxo-2,3-dihydrodipyrazolo[3,4-b:3′,4′-d]pyridine-6(5H)-carbothioamide] | A (A indicates % inhibition >80%) | D (D indicates negative modulation >20%) | 
CCNC(=O)n1nc2[nH]cc3c(=O)n(-c4ccccc4)nc-3c2c1C [Compound 6av, N-ethyl-8-methyl-3-oxo-2-phenyl-2,3-dihydrodipyrazolo[3,4-b:3′,4′-d]pyridine-7(5H)-carboxamide] | A (A indicates % inhibition >80%) | E (E indicates negative modulation <20%) | B (B indicates % inhibition <80% and >20%)
CCNC(=O)n1ncc2c3nn(-c4ccc(Cl)cn4)c(=O)c-3c[nH]c21 [Compound 6ay, 2-(5-chloropyridin-2-yl)-N-ethyl-3-oxo-2,3-dihydrodipyrazolo[3,4-b:3′,4′-d]pyridine-6(5H)-carboxamide] | A (A indicates % inhibition >80%) | D (D indicates negative modulation >20%) | 
CCNC(=O)n1ncc2c3nn(-c4ccccc4)c(=O)c-3c[nH]c21 [Compound 6b, N-ethyl-3-oxo-2-phenyl-2,3-dihydrodipyrazolo[3,4-b:3′,4′-d]pyridine-6(5H)-carboxamide] | A (A indicates % inhibition >80%) | D (D indicates negative modulation >20%) | A (A indicates % inhibition >80%)
CNC(=O)n1ncc2c3nn(-c4ccccc4)c(=O)c-3c[nH]c21 [Compound 6c, N-methyl-3-oxo-2-phenyl-2,3-dihydrodipyrazolo[3,4-b:3′,4′-d]pyridine-6(5H)-carboxamide] | A (A indicates % inhibition >80%) | D (D indicates negative modulation >20%) | B (B indicates % inhibition <80% and >20%)
CCCNC(=O)n1ncc2c3nn(-c4ccccc4)c(=O)c-3c[nH]c21 [Compound 6d, 3-oxo-2-phenyl-N-propyl-2,3-dihydrodipyrazolo[3,4-b:3′,4′-d]pyridine-6(5H)-carboxamide] | A (A indicates % inhibition >80%) | E (E indicates negative modulation <20%) | 
CCCCNC(=O)n1ncc2c3nn(-c4ccccc4)c(=O)c-3c[nH]c21 [Compound 6f, N-butyl-3-oxo-2-phenyl-2,3-dihydrodipyrazolo[3,4-b:3′,4′-d]pyridine-6(5H)-carboxamide.TFA] | A (A indicates % inhibition >80%) | D (D indicates negative modulation >20%) | 
O=C(Nc1ccccc1)n1ncc2c3nn(-c4ccccc4)c(=O)c-3c[nH]c21 [Compound 6h, 3-oxo-N,2-diphenyl-2,3-dihydrodipyrazolo[3,4-b:3′,4′-d]pyridine-6(5H)-carboxamide] | B (B indicates % inhibition <80% and >20%) | D (D indicates negative modulation >20%) | C (C indicates % inhibition <20%)
O=C(NC1CC1)n1ncc2c3nn(-c4ccccc4)c(=O)c-3c[nH]c21 [Compound 6j, N-cyclopropyl-3-oxo-2-phenyl-2,3-dihydrodipyrazolo[3,4-b:3′,4′-d]pyridine-6(5H)-carboxamide] | A (A indicates % inhibition >80%) | E (E indicates negative modulation <20%) | C (C indicates % inhibition <20%)
CCNC(=O)n1nc(C)c2c3nn(-c4ccccc4)c(=O)c-3c[nH]c21 [Compound 6l, N-ethyl-8-methyl-3-oxo-2-phenyl-2,3-dihydrodipyrazolo[3,4-b:3′,4′-d]pyridine-6(5H)-carboxamide] | A (A indicates % inhibition >80%) | D (D indicates negative modulation >20%) | A (A indicates % inhibition >80%)
CCNC(=O)n1ncc2c3nn(-c4ccccn4)c(=O)c-3c[nH]c21 [Compound 6m, N-ethyl-3-oxo-2-(pyridin-2-yl)-2,3-dihydrodipyrazolo[3,4-b:3′,4′-d]pyridine-6(5H)-carboxamide] | A (A indicates % inhibition >80%) | D (D indicates negative modulation >20%) | C (C indicates % inhibition <20%)
